Data as given in article PMC12851581, “Allosteric effects of the coupling cation in melibiose transporter MelB” (eLife, 2026).

What was measured:
[1] = molecular target: T1, melibiose permease MelBSt (WT) (Salmonella enterica, UniProt P30878); experiment: ITC, […] NaCl, […] °C; [3H]raffinose transport in cells; assay type: binding; design: gene melB; WT MelBSt/CHis10
[2] = molecular target: T1, melibiose permease MelBSt (WT); experiment: ITC, […] NaCl, […] °C; assay type: binding; design: gene melB; WT MelBSt/CHis10
[3] = molecular target: T1, melibiose permease MelBSt (WT); experiment: α-NPG downhill transport in E. coli DW2 cells (p-nitrophenol release); assay type: cell-based; design: gene melB; WT MelBSt/CHis10 expressed in E. coli DW2 cells

T1 sequence (P30878 whole entry): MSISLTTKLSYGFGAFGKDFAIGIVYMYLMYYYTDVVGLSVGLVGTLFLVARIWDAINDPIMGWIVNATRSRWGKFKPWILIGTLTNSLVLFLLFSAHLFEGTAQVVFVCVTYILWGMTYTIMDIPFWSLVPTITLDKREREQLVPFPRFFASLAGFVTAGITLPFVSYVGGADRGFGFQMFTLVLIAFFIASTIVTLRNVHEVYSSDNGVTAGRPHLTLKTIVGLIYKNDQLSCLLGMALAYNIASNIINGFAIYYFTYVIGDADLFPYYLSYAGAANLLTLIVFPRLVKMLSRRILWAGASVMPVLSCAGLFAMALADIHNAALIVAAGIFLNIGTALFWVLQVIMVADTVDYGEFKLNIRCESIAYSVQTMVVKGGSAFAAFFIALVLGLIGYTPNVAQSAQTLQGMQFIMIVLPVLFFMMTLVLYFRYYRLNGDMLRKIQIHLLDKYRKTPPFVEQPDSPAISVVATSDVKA

OC[C@H]1O[C@H](OC[C@H]2O[C@H](O[C@]3(CO)O[C@H](CO)[C@@H](O)[C@@H]3O)[C@H](O)[C@@H](O)[C@@H]2O)[C@H](O)[C@@H](O)[C@H]1O [raffinose, Raffinose]
Kd [1]: 3.79 ± 0.53 mM

CO[C@H]1O[C@H](CO)[C@H](O)[C@H](O)[C@H]1O [α-MG, methyl α-D-galactoside]
Kd [2]: 880 ± 40 µM

O=[N+]([O-])c1ccc(O[C@H]2O[C@H](CO)[C@H](O)[C@H](O)[C@H]2O)cc1 [α-NPG, p-Nitrophenyl α-D-galactoside]
α-NPG downhill transport in E. coli DW2 cells (p-nitrophenol release) [3]: both WT MelBSt and D59C uniport mutant mediated the translocation of α-NPG
